Data reported in patent US20260347364A1, “PYRAZOLO[4,3-F]QUINAZOLINE DERIVATIVES AS MODULATORS OF G12D MUTANT KRAS USEFUL FOR THE TREATMENT OF CANCER” (JAZZ PHARMACEUTICALS IRELAND LTD., priority 2023, published 2026).

Experiments:
KRAS G12D = molecular target: T1, KRAS G12D (Homo sapiens, UniProt P01116, G12D); test: HTRF nucleotide exchange assay, KRAS G12D; type: biochemical; conditions: class symbols; for IC50: HTRF nucleotide exchange assay (NEA)
T1 construct: aa1-188 KRAS WT, HRAS WT, NRAS WT, or KRAS containing the G12D

KRAS WT = molecular target: T2, KRAS WT (Homo sapiens, UniProt P01116); test: HTRF nucleotide exchange assay, KRAS WT; type: biochemical; conditions: HTRF nucleotide exchange assay (NEA), class symbols
T2 construct: aa1-188 KRAS WT

Compound	IC50 (KRAS G12D) [µM]	IC50 (KRAS WT) [µM]	KRAS^G12D NEA (KRAS G12D)
CCc1c(F)ccc2cc(O)cc(-c3c(C)c4nc(OCC56CCCN5CCC6)nc(N5CCOCC(C)(O)C5)c4c4cn(C)nc34)c12 (stereo not drawn) [Example 147, 4-[4-(8-ethyl-7-fluoro-3-hydroxy-1-naphthyl)-7-(1,2,3,5,6,7-hexahydropyrrolizin-8-ylmethoxy)-2,5-dimethyl-pyrazolo[4,3-f]quinazolin-9-yl]-6-methyl-1,4-oxazepan-6-ol]	≤ 0.01	≤ 0.01	–
CCc1c(F)ccc2cc(O)cc(-c3c(F)c4nc(OCC5(CN6C[C@@H]7C[C@H]6CO7)CC5)nc(N5CCOCC(C)(O)C5)c4c4cn(C)nc34)c12 (mixture of isomers) [Example 226, 4-[4-(8-ethyl-7-fluoro-3-hydroxy-1-naphthyl)-5-fluoro-2-methyl-7-[[1-[[rac-(1S,4S)-2-oxa-5-azabicyclo[2.2.1]heptan-5-yl]methyl]cyclopropyl]methoxy]pyrazolo[4,3-f]quinazolin-9-yl]-6-methyl-1,4-oxazepan-6-ol]	≤ 0.01	≤ 0.01	–
CCc1c(F)ccc2cc(O)cc(-c3cc4nc(OCC5(C)C[C@@H](O)CN5C)nc(N5CCCn6nc(C(=O)N(C)C)cc6C5)c4c4cn(C)nc34)c12 (mixture of isomers) [Example 68, 5-[4-(8-ethyl-7-fluoro-3-hydroxy-1-naphthyl)-2-methyl-7-[rac-(4R)-4-hydroxy-1,2-dimethyl-pyrrolidin-2-yl]methoxy]pyrazolo[4,3-f]quinazolin-9-yl]-N,N-dimethyl-4,6,7,8-tetrahydropyrazolo[1,5-a][1,4]diazepine-2-carboxamide]	≤ 0.01	≤ 0.01	–
CCc1c(F)ccc2cc(O)cc(-c3cc4nc(OC[C@@]56CCCN5C[C@H](F)C6)nc(N5CCCC(C)(OC)C5)c4c4cn(C)nc34)c12 (stereo partly drawn) [Example 131, 5-ethyl-6-fluoro-4-[9-(3-methoxy-3-methyl-1-piperidyl)-2-methyl-7-[[(2R,8S)-2-fluoro-1,2,3,5,6,7-hexahydropyrrolizin-8-yl]methoxy]pyrazolo[4,3-f]quinazolin-4-yl]naphthalen-2-ol]	0.01 to 0.1	0.1 to 10	–
CCc1c(F)ccc2cc(O)cc(-c3c(C)c4nc(OCC56CCCN5CCC6)nc(N5CCC[C@@](C)(O)C5)c4c4cn(C)nc34)c12 [Example 205, (3R)-1-[4-(8-ethyl-7-fluoro-3-hydroxy-1-naphthyl)-7-(1,2,3,5,6,7-hexahydropyrrolizin-8-ylmethoxy)-2,5-dimethyl-pyrazolo[4,3-f]quinazolin-9-yl]-3-methyl-piperidin-3-ol]	≤ 0.01	≤ 0.01	–
CCc1c(F)ccc2cc(O)cc(-c3c(F)c4nc(OCC5(CN(C)CC)CC5)nc(N5CCOCC(C)(O)C5)c4c4cn(C)nc34)c12 (stereo not drawn) [Example 212, 4-[4-(8-ethyl-7-fluoro-3-hydroxy-1-naphthyl)-7-[[1-[[ethyl(methyl)amino]methyl]cyclopropyl]methoxy]-5-fluoro-2-methyl-pyrazolo[4,3-f]quinazolin-9-yl]-6-methyl-1,4-oxazepan-6-ol]	≤ 0.01	≤ 0.01	–
CCc1c(F)ccc2cc(O)cc(-c3c(F)c4nc(OC[C@@]56CCCN5C[C@H](F)C6)nc(N5CC6CCC5CN6)c4c4cn(C)nc34)c12 (stereo partly drawn) [Example 179, 4-[9-(2,5-diazabicyclo[2.2.2]octan-2-yl)-5-fluoro-2-methyl-7-[[(2R,8S)-2-fluoro-1,2,3,5,6,7-hexahydropyrrolizin-8-yl]methoxy]pyrazolo[4,3-f]quinazolin-4-yl]-5-ethyl-6-fluoro-naphthalen-2-ol]	≤ 0.01	≤ 0.01	–
CCc1c(F)ccc2cc(O)cc(-c3cc4nc(OC[C@@]56CCCN5C[C@H](F)C6)nc(N5CCCCC(C)(O)C5)c4c4cn(C)nc34)c12 (stereo partly drawn) [Example 10, 1-[4-(8-ethyl-7-fluoro-3-hydroxy-1-naphthyl)-2-methyl-7-[[(2R,8S)-2-fluoro-1,2,3,5,6,7-hexahydropyrrolizin-8-yl]methoxy]pyrazolo[4,3-f]quinazolin-9-yl]-3-methyl-azepan-3-ol]	≤ 0.01	≤ 0.01	–
CCc1c(F)ccc2cc(O)cc(-c3cc4nc(OC[C@@]56CCCN5C[C@H](F)C6)nc(N5CCCNCC5)c4c4cn(C)nc34)c12 [Example 20, 4-[9-(1,4-diazepan-1-yl)-2-methyl-7-[[(2R,8S)-2-fluoro-1,2,3,5,6,7-hexahydropyrrolizin-8-yl]methoxy]pyrazolo[4,3-f]quinazolin-4-yl]-5-ethyl-6-fluoro-naphthalen-2-ol]	≤ 0.01	0.01 to 0.1	–
CCc1c(F)ccc2cc(O)cc(-c3c(F)c4nc(OC[C@@]56CCCN5C[C@H](F)C6)nc(N5CCOC[C@@](C)(O)C5)c4c4cn(C)nc34)c12 [Example 109, (6S)-4-[4-(8-ethyl-7-fluoro-3-hydroxy-1-naphthyl)-5-fluoro-2-methyl-7-[[(2R,8S)-2-fluoro-1,2,3,5,6,7-hexahydropyrrolizin-8-yl]methoxy]pyrazolo[4,3-f]quinazolin-9-yl]-6-methyl-1,4-oxazepan-6-ol]	≤ 0.01	≤ 0.01	–
CCc1c(F)ccc2cc(O)cc(-c3c(F)c4nc(OCC56CCCN5CCC6)nc(N5CCC[C@@](C)(O)C5)c4c4cn(C)nc34)c12 [Example 203, (3R)-1-[4-(8-ethyl-7-fluoro-3-hydroxy-1-naphthyl)-5-fluoro-7-(1,2,3,5,6,7-hexahydropyrrolizin-8-ylmethoxy)-2-methyl-pyrazolo[4,3-f]quinazolin-9-yl]-3-methyl-piperidin-3-ol]	≤ 0.01	≤ 0.01	–
CCc1c(F)ccc2cc(O)cc(-c3cc4nc(OC[C@@]56CCCN5C[C@H](F)C6)nc(N5CCCC6(CCO6)C5)c4c4cn(C)nc34)c12 (stereo partly drawn) [Example 125, 5-ethyl-6-fluoro-4-[2-methyl-9-(1-oxa-8-azaspiro[3.5]nonan-8-yl)-7-[[(2R,8S)-2-fluoro-1,2,3,5,6,7-hexahydropyrrolizin-8-yl]methoxy]pyrazolo[4,3-f]quinazolin-4-yl]naphthalen-2-ol]	0.01 to 0.1	0.01 to 0.1	–
CCc1c(F)ccc2cc(O)cc(-c3cc4nc(OC[C@@]56CCCN5C[C@H](F)C6)nc(N5CCC6(CC6)C(O)C5)c4c4cn(C)nc34)c12 (stereo partly drawn) [Example 130, 6-[4-(8-ethyl-7-fluoro-3-hydroxy-1-naphthyl)-2-methyl-7-[[(2R,8S)-2-fluoro-1,2,3,5,6,7-hexahydropyrrolizin-8-yl]methoxy]pyrazolo[4,3-f]quinazolin-9-yl]-6-azaspiro[2.5]octan-8-ol]	–	0.1 to 10	D (<49% inhibition at 10 μM)
CCc1c(F)ccc2cc(O)cc(-c3cc4nc(OC[C@@]56CCCN5C[C@H](F)C6)nc(N5CC6C(=O)NC(=O)C6C5)c4c4cn(C)nc34)c12 (stereo partly drawn) [Example 17, 5-[4-(8-ethyl-7-fluoro-3-hydroxy-1-naphthyl)-2-methyl-7-[[(2R,8S)-2-fluoro-1,2,3,5,6,7-hexahydropyrrolizin-8-yl]methoxy]pyrazolo[4,3-f]quinazolin-9-yl]-3a,4,6,6a-tetrahydropyrrolo[3,4-c]pyrrole-1,3-dione]	≤ 0.01	≤ 0.01	–
CCc1c(F)ccc2cc(O)cc(-c3cc4nc(OC[C@@]56CCCN5C[C@H](F)C6)nc(N5CCNCC5)c4c4cn(C)nc34)c12 [Example 13, 5-ethyl-6-fluoro-4-[2-methyl-9-piperazin-1-yl-7-[[(2R,8S)-2-fluoro-1,2,3,5,6,7-hexahydropyrrolizin-8-yl]methoxy]pyrazolo[4,3-f]quinazolin-4-yl]naphthalen-2-ol]	0.01 to 0.1	0.1 to 10	–
CCc1c(F)ccc2cc(O)cc(-c3c(F)c4nc(OC[C@@]56CCCN5C[C@H](F)C6)nc(N5CCOCC(O)C5)c4c4cn(C)nc34)c12 (stereo partly drawn) [Example 223, 4-[4-(8-ethyl-7-fluoro-3-hydroxy-1-naphthyl)-5-fluoro-7-[[(2R,8S)-2-fluoro-1,2,3,5,6,7-hexahydropyrrolizin-8-yl]methoxy]-2-methyl-pyrazolo[4,3-f]quinazolin-9-yl]-1,4-oxazepan-6-ol]	≤ 0.01	≤ 0.01	–
CCc1c(F)ccc2cc(O)cc(-c3c(C)c4nc(OC[C@@]56CCCN5C[C@H](F)C6)nc(N5CCCn6nc(COC)cc6C5)c4c4cn(C)nc34)c12 [Example 243]	≤ 0.01	≤ 0.01	–
CCc1c(F)ccc2cccc(-c3cc4nc(OC[C@@]56CCCN5C[C@H](F)C6)nc(N5CCCn6nc(C(=O)N(C)C)cc6C5)c4c4cn(C)nc34)c12 [Example 63, 5-[4-(8-ethyl-7-fluoro-1-naphthyl)-2-methyl-7-[[(2R,8S)-2-fluoro-1,2,3,5,6,7-hexahydropyrrolizin-8-yl]methoxy]pyrazolo[4,3-f]quinazolin-9-yl]-N,N-dimethyl-4,6,7,8-tetrahydropyrazolo[1,5-a][1,4]diazepine-2-carboxamide]	≤ 0.01	0.01 to 0.1	–
CCc1c(F)ccc2cc(O)cc(-c3cc4nc(OC[C@@]56CCCN5C[C@H](F)C6)nc(N5CCC(C)C(O)C5)c4c4cn(C)nc34)c12 (stereo partly drawn) [Example 133, 1-[4-(8-ethyl-7-fluoro-3-hydroxy-1-naphthyl)-2-methyl-7-[[(2R,8S)-2-fluoro-1,2,3,5,6,7-hexahydropyrrolizin-8-yl]methoxy]pyrazolo[4,3-f]quinazolin-9-yl]-4-methyl-piperidin-3-ol]	0.01 to 0.1	0.1 to 10	–
CCc1c(F)ccc2cc(O)cc(-c3cc4nc(OCC56CCCN5CCC6)nc(N5CCCOCC5)c4c4cn(C)nc34)c12 [Example 6, 5-ethyl-6-fluoro-4-[7-(1,2,3,5,6,7-hexahydropyrrolizin-8-ylmethoxy)-2-methyl-9-(1,4-oxazepan-4-yl)pyrazolo[4,3-f]quinazolin-4-yl]naphthalen-2-ol]	≤ 0.01	≤ 0.01	–
CCc1c(F)ccc2cc(O)cc(-c3cc4nc(OC[C@@]56CCCN5C[C@H](F)C6)nc(N5CCCn6nc(C(=O)N(C)C)c(F)c6C5)c4c4cn(C)nc34)c12 [Example 103]	≤ 0.01	≤ 0.01	–
